Measurements from US6338963B1, “Use of carbon monoxide dependent guanylyl cyclase modifiers to stimulate neuritogenesis” (NeoTherapeutics, Inc., priority 1994, dated 2002).

What was measured:
[1] = system: NGF mRNA; assay: Northern/slot blot of neurotrophin mRNA from astrocytes: NGF; format: cell-based, NIH Swiss mice; set-up: key to NGF mRNA: The conditions which produced a detectable amount of each of the neurotrophin mRNAs are indicated by a “+”; a “++” indicating that at least twice the detectable amount was present; Those blots which were negative are indicated by a “−”; details: for NGF mRNA: 24 hours
Description: (§1) Induction of neurotrophin mRNA was determined by northern blot analysis of astrocytes cultured with AIT-082, NGF, or both. The cells were harvested and RNA extracted at 24 hours after treatment.
(§2) More particularly, astrocytes from the cerebral cortex of NIH Swiss mice (Harlan) were isolated. Briefly, newborn pups (0-24 hours) were decapitated. Their brains were removed under aseptic conditions and were placed in modified Dulbecco's medium (DMEM) containing 20% heat-inactivated horse serum (Hyclone) (“complete medium”). The neopallium was then dissected from each cerebral hemisphere and minced into 1 mm cubes.
(§3) The astrocytes were then isolated by mechanical dissociation. The cubes were vortexed at maximum speed for one minute. The cell suspension was then passed first through 75 mm Nitex then through 10 mm Nitex. The resulting cell suspension was diluted in complete medium to a final concentration of one brain per 10 ml of complete medium. Ten milliliters of the diluted cell suspension was added to each 100 mm Falcon tissue culture plate (Fisher). After 3 days the medium was replaced with 10 ml fresh complete medium and subsequently was replaced twice weekly with DMEM containing 10% heat inactivated horse serum (“growth medium”). After two weeks in culture the astrocytes formed a confluent monolayer.
(§4) For RNA extraction, astrocytes were trypsinized. The astrocytes were then replated onto 100 mm PORN coated plates at a cell density of 10^6 cells per plate (10 ml growth medium). After 2 hrs PBS, guanosine (Guo), or GTP at 10 mM were added to the appropriate plates. Total RNA was harvested from 1.5×10^7 cells for each treatment, 4 and 24 hrs after treatment using TRIzol reagent and supplier protocol (GIBCO BRL/Life Technologies, Inc.). For slot blots, total RNA was bound to Hybond-N filters (Amersham/United States Biochemicals) as described in Transfer and Immobilization of Nucleic Acids and Proteins to S & S Solid Supports (S and S Protocols: Schleicher & Schuell, New Hampshire, USA). Northern blots were also performed using […] total RNA from each sample. These were electrophoresed in 1% agarose gels containing formaldehyde and blotted onto Hybond-N filters according to S and S protocols.
(§5) The blots were probed with ^32P-labeled cDNA (NGF, NT-3 and BDNF probes) or oligonucleotide probe (FGF-2) by hybridization in Piperazine-N,N′-bis-(2-ethanesulfonic acid) (PIPES) buffer (50 mM PIPES, pH 6.8; 50 mM NaH2PO4; 0.1 M NaCl; 5% SDS and 1 mM EDTA) overnight at 50° C. […] Various concentrations ([…] of total RNA), as determined by spectrophotometry, of each sample were blotted and probed so that quantification could be done after insuring a linear film response. Quantification was performed using MCID Image Analysis (St. Catherine's, Ontario, Canada). […]

[2] = system: NGF; assay: Western blot of astrocyte cytosolic proteins: NGF; format: cell-based, rat
Description: Western blot analysis of cytosolic proteins from cultured astrocytes was performed to detect the factors NGF and TGFβ2. The results are shown in FIG. 58A for NGF at 6 and 12 hours and in FIG. 58B for TGFβ2 at 6 and 12 hours.
Western blot analysis of cytosolic proteins deriving from cultured astrocytes treated for 6 or 12 hours with 100 μM AIT-082 was performed. AIT-082 is able to promote the production of neurotrophic factors from rat cultured astrocytes as measured by Western blot analysis. The results are shown in FIG. 62A for NGF and in FIG. 62B for TGFβ2. Electrophoresis was performed in 12% (for NBF) or 15% (for TGFβ2) SDS-PAGE (20 μg of total protein per lane). The separated proteins were transferred onto a PVDF membrane (Bio-Rad Laboratories, Italy).

[3] = system: FGF-2 mRNA; assay: Northern/slot blot of neurotrophin mRNA from astrocytes: FGF-2; format: cell-based, NIH Swiss mice; set-up: key to FGF-2 mRNA: The conditions which produced a detectable amount of each of the neurotrophin mRNAs are indicated by a “+”; a “++” indicating that at least twice the detectable amount was present; Those blots which were negative are indicated by a “−”; details: for FGF-2 mRNA: 24 hours
Description: as §1, §2, §3, §4, §5

[4] = system: S100β protein; assay: S100β protein release from rat cultured astrocytes (ELISA); format: cell-based; details: for release of S100β protein from astrocytes: exposure for 24 hours
Description: The S100β protein was measured by using an ELISA as described in A. Aurell et al., “The S-100 Protein in Cerebrospinal Fluid: A Simple ELISA Method,” J.Neurol. Sci. 89: 157-164 (1989).
The NGF and S100β protein were measured by removing the cultured medium for the ELISA assays at each indicated time point.

[5] = system: rat cultured astrocytes; assay: Release of radioactively labeled adenine-based purines from rat cultured astrocytes; format: cell-based
[6] = system: TGFβ2; assay: TGFβ2 release from rat cultured astrocytes (ELISA); format: cell-based
Description: NGF and TGFβ2 levels were assayed in the culture medium of the astrocytes by specific ELISA assays using kits from Roche (Germany) and Promega (USA) respectively. NGF basal levels were 56.3±3.2 pg/ml. TGFβ2 levels were 9.1±0.06 pg/ml.
In FIG. 61, the dose-response curves of NGF and TGFβ2 release from rat cultured astrocytes as the result of exposure to AIT-082 are shown.

O=C(CCn1cnc2c(=O)[nH]cnc21)Nc1ccc(C(=O)O)cc1 [AIT-082, N-4-carboxyphenyl-3-(6-oxohydropurin-9-yl)propanamide]
NGF mRNA ([1]; AIT-082 100 mM): ++
NGF mRNA ([1]; AIT-082 + NGF (40 ng/ml)): +
intracellular levels of NGF ([2]; 100 μM AIT-082, 6 or 12 hours): increased in time-dependent manner
FGF-2 mRNA ([3]; AIT-082 100 mM): ++
FGF-2 mRNA ([3]; AIT-082 + NGF (40 ng/ml)): +
time of peak release of S100β protein ([4]; AIT-082 100 μM): peaked within three hours
release of S100β protein from astrocytes [4]: dose-dependent increase
outflow of radioactive adenine-based purines ([5]; astrocytes exposed for one hour): dose-dependent increase
release of adenosine and inosine ([5]; first hour of the release): increased the release of adenosine and inosine in a dose-dependent fashion
release of hypoxanthine and the adenine nucleotides ATP, ADP, or AMP ([5]; first hour of the release): without effecting the release
increase of TGFβ2 production as compared to a control ([6]; rat cultured astrocytes): 1.7 fold

Nc1nc2c(ncn2[C@@H]2O[C@H](CO)[C@@H](O)[C@H]2O)c(=O)[nH]1 [guanosine]
NGF mRNA in astrocytes ([1]; guanosine, 4 hours after addition): increased
intracellular content of NGF ([2]; guanosine, 6 and 12 hours): increased the intracellular content of NGF and TGFβ2 in time-dependent fashion
FGF-2 mRNA in astrocytes ([3]; guanosine, 24 hours after addition): increased
release of S100β protein from astrocytes [4]: dose-dependent increase
ADP, radioactivity released in the culture medium ([5]; 300 μM, 1 hour): 0.84 ± 0.09 cpm × 10^3
AMP, proportional release ([5]; 300 μM, 1 hour): (12.3 ± 1.7) percentage of the total [^3H]-purines released
AMP, radioactivity released in the culture medium ([5]; 300 μM, 1 hour): 1.58 ± 0.22 cpm × 10^3
ATP, proportional release ([5]; 300 μM, 1 hour): (5.5 ± 0.7) percentage of the total [^3H]-purines released
ATP, radioactivity released in the culture medium ([5]; 300 μM, 1 hour): 0.71 ± 0.09 cpm × 10^3
Adenosine, radioactivity released in the culture medium ([5]; 300 μM, 1 hour): 1.53 ± 0.10 cpm × 10^3
Hypoxanthine, proportional release ([5]; 300 μM, 1 hour): (24.7 ± 1.5) percentage of the total [^3H]-purines released
Hypoxanthine, radioactivity released in the culture medium ([5]; 300 μM, 1 hour): 3.41 ± 0.20 cpm × 10^3
Inosine, radioactivity released in the culture medium ([5]; 300 μM, 1 hour): 4.64 ± 0.51 cpm × 10^3
ADP, proportional release ([5]; 300 μM, 3 hours): (4.0 ± 0.6) percentage of the total [^3H]-purines released
ADP, radioactivity released in the culture medium ([5]; 300 μM, 3 hours): 0.50 ± 0.07 cpm × 10^3
AMP, proportional release ([5]; 300 μM, 3 hours): (11.9 ± 1.0) percentage of the total [^3H]-purines released
AMP, radioactivity released in the culture medium ([5]; 300 μM, 3 hours): 1.37 ± 0.14 cpm × 10^3
ATP, proportional release ([5]; 300 μM, 3 hours): (3.1 ± 0.32) percentage of the total [^3H]-purines released
ATP, radioactivity released in the culture medium ([5]; 300 μM, 3 hours): 0.39 ± 0.04 cpm × 10^3
Adenosine, proportional release ([5]; 300 μM, 3 hours): (9.3 ± 0.9) percentage of the total [^3H]-purines released
Adenosine, radioactivity released in the culture medium ([5]; 300 μM, 3 hours): 1.16 ± 0.15 cpm × 10^3
Hypoxanthine, proportional release ([5]; 300 μM, 3 hours): (26.3 ± 2.7) percentage of the total [^3H]-purines released
Hypoxanthine, radioactivity released in the culture medium ([5]; 300 μM, 3 hours): 3.29 ± 0.34 cpm × 10^3
Inosine, proportional release ([5]; 300 μM, 3 hours): (3.25 ± 3.3) percentage of the total [^3H]-purines released
Inosine, radioactivity released in the culture medium ([5]; 300 μM, 3 hours): 4.09 ± 0.41 cpm × 10^3
release of TGFβ2 from astrocytes ([6]; exposure for 24 hours): dose-dependent increase
